Drawing on the NIST ThermoML archive (doi:10.1021/je300768j), this text covers Glass transition temperature for one compound.

Numbers after ± are expanded uncertainties.

For the data set the following is noted: DTA.

With `CC(=O)[O-].CCn1cc[n+](C)c1` [1-ethyl-3-methylimidazolium acetate], the Glass transition temperature was -75.50 ± 3 °C.
